From patent US9156838B2, “Fused heterocyclic compound” (Sumitomo Chemical Company, Limited, priority 2012, dated 2015) come the findings set out here.

The subject of this experiment is Blattella germanica. Kind of experiment: Test Example 9: treated filter paper with sucrose bait, Blattella germanica male imagoes. In kind it is in vivo. The settings on record: 500 ppm, 0.7 ml on filter paper, after 6 days. How it is done:
The formulations of Compounds 3 and 10 as obtained in Formulation Example 5 were diluted with water, so as to have a concentration of the active ingredient of 500 ppm, to prepare a test drug solution.
A filter paper having a diameter of 5.5 cm was spread on the bottom of a polyethylene cup having the same diameter and 0.7 ml of the test drug solution was added dropwise onto the filter paper, and 30 mg of sucrose was uniformly placed as bait. Into the polyethylene cup, 2 male imagoes of Blattella germanica were released, and the cup was sealed with a lid. After 6 days, the life and death of Blattella germanica was examined, and the death rate was calculated.

In turn, `CCS(=O)(=O)c1cc([S+]([O-])C(F)(F)F)ccc1-c1nc2cc(C(F)(F)F)cnc2n1C` (centres unmarked) [Compound 3] came in with a death rate of 100%.

For `CCS(=O)(=O)c1cc(SC(F)(F)F)ccc1-c1nc2cc(C(F)(F)C(F)(F)F)cnc2n1C` [Compound 10, 2-(2-ethylsulfonyl-4-trifluoromethylsulfanylphenyl)3-methyl-6-pentafluoroethyl-3H-imidazo[4,5-b]pyridine], the death rate stood at 100%.
